Measured values as given in the NIST ThermoML archive (doi:10.1016/j.jct.2013.04.015).
Numbers after ± are expanded uncertainties.

Experiment: xn = mol fraction of the nth substance listed
Details: for surface tension liquid-gas: Wilhelmy plate method; for mass density: 101 kPa, Liquid, Vibrating tube method

CCCCn1cc[n+](C)c1.C[C@H](O)C(=O)[O-] [1-butyl-3-methylimidazolium L-lactate] + CCCCO
Details	mass density [kg/m3]	surface tension liquid-gas [mN/m]
298.15 K, x1 = 0.01	–	24.18 ± 0.3
298.15 K, x1 = 0.0297	–	24.53 ± 0.3
298.15 K, x1 = 0.0482	–	24.7 ± 0.3
298.15 K, x1 = 0.0601	–	24.83 ± 0.3
298.15 K, x1 = 0.0888	–	25.1 ± 0.3
298.15 K, x1 = 0.0999	875.7 ± 0.4	–
298.15 K, x1 = 0.1001	–	25.17 ± 0.3
298.15 K, x1 = 0.1996	927.3 ± 0.4	26.2 ± 0.3
298.15 K, x1 = 0.3016	–	27.25 ± 0.3
298.15 K, x1 = 0.303	968.1 ± 0.4	–
298.15 K, x1 = 0.3998	997.8 ± 0.4	–
298.15 K, x1 = 0.4004	–	28.42 ± 0.31
298.15 K, x1 = 0.4997	–	29.67 ± 0.31
298.15 K, x1 = 0.5	1024.2 ± 0.4	–
298.15 K, x1 = 0.5889	–	31.11 ± 0.32
298.15 K, x1 = 0.6002	1044.6 ± 0.4	–
298.15 K, x1 = 0.6979	–	32.64 ± 0.32
298.15 K, x1 = 0.7001	1060.8 ± 0.4	–
298.15 K, x1 = 0.8	1076.4 ± 0.4	–
298.15 K, x1 = 0.8012	–	34.73 ± 0.33
298.15 K, x1 = 0.8747	–	36.6 ± 0.34
298.15 K, x1 = 0.8999	1091.8 ± 0.5	–
298.15 K, x1 = 1	1111.2 ± 0.5	42.92 ± 0.37
308.15 K, x1 = 0.0101	–	23.63 ± 0.3
308.15 K, x1 = 0.0295	–	23.87 ± 0.3
308.15 K, x1 = 0.0495	–	24.18 ± 0.3
308.15 K, x1 = 0.0604	–	24.22 ± 0.3
308.15 K, x1 = 0.0884	–	24.59 ± 0.3
308.15 K, x1 = 0.0999	868.3 ± 0.4	24.67 ± 0.3
308.15 K, x1 = 0.1996	920.3 ± 0.4	–
308.15 K, x1 = 0.1999	–	25.68 ± 0.3
308.15 K, x1 = 0.3008	–	26.81 ± 0.3
308.15 K, x1 = 0.303	960.8 ± 0.4	–
308.15 K, x1 = 0.3994	–	28.18 ± 0.31
308.15 K, x1 = 0.3998	990.5 ± 0.4	–
308.15 K, x1 = 0.4989	–	29.41 ± 0.31
308.15 K, x1 = 0.5	1017.2 ± 0.4	–
308.15 K, x1 = 0.5877	–	30.83 ± 0.32
308.15 K, x1 = 0.6002	1037.4 ± 0.4	–
308.15 K, x1 = 0.695	–	32.5 ± 0.32
308.15 K, x1 = 0.7001	1053.9 ± 0.4	–
308.15 K, x1 = 0.7981	–	34.33 ± 0.33
308.15 K, x1 = 0.8	1069 ± 0.4	–
308.15 K, x1 = 0.8807	–	36.48 ± 0.34
308.15 K, x1 = 0.8999	1084.2 ± 0.5	–
308.15 K, x1 = 1	1104.2 ± 0.5	42.37 ± 0.37
318.15 K, x1 = 0.0101	–	23.08 ± 0.3
318.15 K, x1 = 0.0296	–	23.25 ± 0.3
318.15 K, x1 = 0.0485	–	23.59 ± 0.3
318.15 K, x1 = 0.061	–	23.71 ± 0.3
318.15 K, x1 = 0.0903	–	23.93 ± 0.3
318.15 K, x1 = 0.0999	859.6 ± 0.4	–
318.15 K, x1 = 0.1004	–	24.17 ± 0.3
318.15 K, x1 = 0.1996	913 ± 0.4	–
318.15 K, x1 = 0.2004	–	25.18 ± 0.3
318.15 K, x1 = 0.3011	–	26.53 ± 0.3
318.15 K, x1 = 0.303	953.9 ± 0.4	–
318.15 K, x1 = 0.3986	–	28 ± 0.31
318.15 K, x1 = 0.3998	983.4 ± 0.4	–
318.15 K, x1 = 0.4989	–	29.33 ± 0.31
318.15 K, x1 = 0.5	1010.1 ± 0.4	–
318.15 K, x1 = 0.59	–	30.68 ± 0.32
318.15 K, x1 = 0.6002	1030.9 ± 0.4	–
318.15 K, x1 = 0.688	–	32.24 ± 0.32
318.15 K, x1 = 0.7001	1047.5 ± 0.4	–
318.15 K, x1 = 0.7993	–	34.23 ± 0.33
318.15 K, x1 = 0.8	1062 ± 0.4	–
318.15 K, x1 = 0.8735	–	36.03 ± 0.34
318.15 K, x1 = 0.8999	1077.3 ± 0.5	–
318.15 K, x1 = 1	1097.7 ± 0.5	42.01 ± 0.37

CCCCn1cc[n+](C)c1.C[C@H](O)C(=O)[O-] [1-butyl-3-methylimidazolium L-lactate] + CCO
Details	mass density [kg/m3]	surface tension liquid-gas [mN/m]
298.15 K, x1 = 0.01	–	22.44 ± 0.31
298.15 K, x1 = 0.0299	–	22.99 ± 0.31
298.15 K, x1 = 0.0497	–	23.47 ± 0.31
298.15 K, x1 = 0.0708	–	24 ± 0.31
298.15 K, x1 = 0.0944	–	24.54 ± 0.31
298.15 K, x1 = 0.0997	897.2 ± 0.5	–
298.15 K, x1 = 0.1987	959.5 ± 0.4	–
298.15 K, x1 = 0.2001	–	26.97 ± 0.31
298.15 K, x1 = 0.3018	–	29.2 ± 0.31
298.15 K, x1 = 0.3066	1002 ± 0.4	–
298.15 K, x1 = 0.4019	–	31.51 ± 0.32
298.15 K, x1 = 0.4106	1028.2 ± 0.4	–
298.15 K, x1 = 0.4954	1042.5 ± 0.4	–
298.15 K, x1 = 0.499	–	33.45 ± 0.33
298.15 K, x1 = 0.5989	1058.4 ± 0.4	–
298.15 K, x1 = 0.6216	–	35.27 ± 0.33
298.15 K, x1 = 0.6985	1070.8 ± 0.5	–
298.15 K, x1 = 0.7009	–	36.3 ± 0.34
298.15 K, x1 = 0.7524	–	37.06 ± 0.34
298.15 K, x1 = 0.7869	1082.1 ± 0.5	–
298.15 K, x1 = 0.8381	–	38.77 ± 0.35
298.15 K, x1 = 0.8978	1095.2 ± 0.5	–
298.15 K, x1 = 1	1111.2 ± 0.5	42.92 ± 0.37
308.15 K, x1 = 0.01	–	21.58 ± 0.31
308.15 K, x1 = 0.0302	–	22.12 ± 0.31
308.15 K, x1 = 0.0474	–	22.62 ± 0.31
308.15 K, x1 = 0.0707	–	23.22 ± 0.31
308.15 K, x1 = 0.0952	–	23.9 ± 0.31
308.15 K, x1 = 0.0997	888.9 ± 0.5	–
308.15 K, x1 = 0.1987	951.9 ± 0.4	–
308.15 K, x1 = 0.2028	–	26.53 ± 0.31
308.15 K, x1 = 0.3026	–	28.8 ± 0.31
308.15 K, x1 = 0.3066	994.7 ± 0.4	–
308.15 K, x1 = 0.406	–	31.08 ± 0.32
308.15 K, x1 = 0.4106	1021.1 ± 0.4	–
308.15 K, x1 = 0.4954	1034.3 ± 0.4	–
308.15 K, x1 = 0.4966	–	32.88 ± 0.32
308.15 K, x1 = 0.5989	1050.4 ± 0.4	–
308.15 K, x1 = 0.6053	–	34.78 ± 0.33
308.15 K, x1 = 0.6882	–	35.51 ± 0.34
308.15 K, x1 = 0.6985	1062.4 ± 0.5	–
308.15 K, x1 = 0.7869	1073.8 ± 0.5	–
308.15 K, x1 = 0.7888	–	36.81 ± 0.34
308.15 K, x1 = 0.8313	–	37.9 ± 0.35
308.15 K, x1 = 0.8978	1086.9 ± 0.5	–
308.15 K, x1 = 1	1104.2 ± 0.5	42.37 ± 0.37
318.15 K, x1 = 0.01	–	20.88 ± 0.3
318.15 K, x1 = 0.0304	–	21.56 ± 0.31
318.15 K, x1 = 0.0448	–	21.9 ± 0.31
318.15 K, x1 = 0.0702	–	22.56 ± 0.31
318.15 K, x1 = 0.0958	–	23.39 ± 0.31
318.15 K, x1 = 0.0997	881.9 ± 0.5	–
318.15 K, x1 = 0.1987	944 ± 0.4	–
318.15 K, x1 = 0.203	–	26.09 ± 0.31
318.15 K, x1 = 0.3032	–	28.36 ± 0.31
318.15 K, x1 = 0.3066	987.7 ± 0.4	–
318.15 K, x1 = 0.4034	–	30.45 ± 0.32
318.15 K, x1 = 0.4106	1014.5 ± 0.4	–
318.15 K, x1 = 0.4954	1028.3 ± 0.4	–
318.15 K, x1 = 0.5017	–	32.46 ± 0.32
318.15 K, x1 = 0.5989	1042.6 ± 0.4	–
318.15 K, x1 = 0.6042	–	34.23 ± 0.33
318.15 K, x1 = 0.6657	–	34.84 ± 0.33
318.15 K, x1 = 0.6985	1055.3 ± 0.4	–
318.15 K, x1 = 0.7561	–	35.48 ± 0.34
318.15 K, x1 = 0.7869	1066.9 ± 0.5	–
318.15 K, x1 = 0.8319	–	36.61 ± 0.34
318.15 K, x1 = 0.8978	1079.8 ± 0.5	–
318.15 K, x1 = 1	1097.7 ± 0.5	42.01 ± 0.37
